Patent US20230041065A1, “METHODS FOR GENERATING HEMATOPOIETIC STEM CELLS” (The Brigham and Women`s Hospital, Inc., priority 2019, published 2023)
Entries after “also recorded” stand apart in the source; their conditions may differ.

Tests used:
E11.5 AGM-derived HSCs = experiment: Serial transplantation of E11.5 AGM-derived HSCs into irradiated mice; assay type: in vivo, mouse
Procedure: Pulsating blood vessels like conditions were stimulated in vitro using Flexcell FX-4000 machine. To analyze roles of pharmacological targets in regulating the endothelial-to-HSC transition, mouse embryo-derived AGM or whole mouse embryo were exposed ex vivo with biomechanical stretching, chemicals, or drugs. Next, hematopoietic colony formation assays were performed by incubating mouse AGM-derived cells in StemCell M3434 media for seven days. Serial transplantation of AGM-derived HSCs in lethally irradiated SJL mice were performed. The stem cell frequency upon biomechanical stretching was analyzed using a limiting dilution assay. To characterize properties of AGM-HSC-derived blood cells in primary transplants, percentage chimerism and reconstitution was measured using FACS, globin transcripts were analyzed using quantitative reverse transcriptase-PCR, myeloperoxidase amount was measured using PicoKine ELISA kit, TCR-β rearrangement was analyzed using PCR for TCR-β locus, pre-immune IG detection was analyzed using Thermo-Fisher Mouse Ig Isotyping kit, and delayed-type hypersensitivity was analyzed by injecting sheep RBC (Rockland Immunochemicals) in the footpad of pre-sensitized mice.
For primary transplantation, three-embryo equivalents of untreated or treated (cyclic strain or 25 μM Yoda1) AGMs plus splenic helper cells (˜500,000 per mouse) were injected into lethally irradiated (split dose […]) Cd45.1 (SJL) mice by retro-orbital injection. For secondary and tertiary transplants, the bone marrow was isolated (legs, arm, pelvic bone, spine, sternum) from the transplanted mice. The bone marrow was loaded on a Ficoll gradient (Histopaque®-1083, Sigma-Aldrich), and the cells from the buffy coat incubated with biotin-conjugated lineage antibodies and streptavidin microbeads (Miltenyi Biotec). Next, the lineage negative (Lin^−) cells were separated with MACS LS Columns (Miltenyi Biotec), and the donor Cd45.2 Lin^−Sca1+c-Kit^+ (LSK) cells sorted with a MoFlo Beckman Coulter sorter. Subsequently, the sorted Cd45.2 LSK cells were mixed with Cd45.1 splenic helper cells (˜500,000 per mouse) and transplanted into Cd45.1 irradiated (split dose […]) SJL mice by retro-orbital injection.
AGM cells from explants and ex vivo were stained with Sca1-Pacific-Blue (E13-161.7, Biolegend) and Flk1-APC-Cy7 (Avas 12α1, BD). Blood from transplanted mice was stained with the following antibody cocktail: Cd45.2-Pacific-Blue (104, Biolegend), Cd45.1-FITC (A20, Biolegend), Cd3-PE (145-2C11, Biolegend), Cd8-PE (53-6.7, Biolegend), Mac1-APC (M1/70, Biolegend), Gr1-APC (108412, Biolegend), Cd19-APC-CY7(6D5, Biolegend), B220-APC-CY7 (RA3-6B2, Biolegend). […]

Dnmt3a = Dnmt3a protein level in nuclear fractions of E11.5 AGM cells; assay type: cell-based, mouse
Procedure: RNA-sequencing analyses were performed to measure gene expression patterns in mouse AGM treated with cyclic strain or pharmacological modulators. Using computational algorithms, hierarchical clustering was performed of differentially expressed genes as well as measured their overrepresented biological processes and pathways. Gene expression clusters of differentially expressed genes were analyzed and their mean expression level across cell populations compared. Next, Venn comparison of up- and down-genes was constructed to analyze candidate(s) important for cyclic strain- or pharmacological modulator(s)-mediated the endothelial-to-HSC transition. Furthermore, Dnmt3b and Dnmt3a protein expressions were analyzed in nuclear fractions of mouse AGM cells using EqiQuick assay kits. Data are presented as mean±s.d. unless otherwise noted. Statistical analyses were performed by paired or un-paired Student's t-tests. Significance was set at P<0.05.
Nuclear extracts from AGM explants were harvested using an EpiQuik Nuclear Extraction Kit (Epigentek Group Inc.). Dnmt3b and Dnmt3a protein levels were analyzed using a colorimetric EpiQuik Assay Kit (Epigentek Group Inc.), according to the manufacturer's instructions. Concentration of Dnmt3b and Dnmt3a is relative to 1 μg of nuclear extract proteins.

Clc1cccc(Cl)c1CSc1nnc(-c2cnccn2)s1 [Yoda1, 2-[5-[[(2,6-Dichlorophenyl)methyl]thio]-1,3,4-thiadiazol-2-yl]-pyrazine]
percentage reconstitution to myeloid cells, T-cells and B-cells (E11.5 AGM-derived HSCs; primary transplant, week 16): stimulates the formation of HSCs that reconstitute to the blood
percentage peripheral blood chimerism (E11.5 AGM-derived HSCs; primary transplant, weeks 8-16, treated E11.5 AGM donor cells): stimulates the formation of HSCs
percentage reconstitution to myeloid cells, T-cells and B-cells (E11.5 AGM-derived HSCs; secondary transplant, week 12): produces HSCs that can serially reconstitute to the blood
percentage peripheral blood chimerism (E11.5 AGM-derived HSCs; secondary transplant, weeks 8-12): produces HSCs that have serial engraftment and self-renewal capacities
Dnmt3a protein expression (Dnmt3a): not Dnmt3a; also recorded: without impacting the expression of Dnmt3a
